In ChEMBL document CHEMBL1201862, “PubChem BioAssay data set” (2004):
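Dose response: 5 concentrations. Exposure: 48 h. Format: 96-well plates. Endpoint: linear interpolation; highest concentration if not reached. GI50 = concentration required for 50% inhibition of growth.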 Activity calls are given as the source filed them. Rule as the data show it: active = GI50 up to about 1.1 µM and inactive = higher.

Experiments:
Assay in all cases: growth of human tumour cells (NCI), 48 h
[1] = test system: OVCAR-3
[2] = test system: IGROV-1
[3] = test system: A549
[4] = test system: RPMI-8226
[5] = test system: A498
[6] = test system: U-251
[7] = test system: HOP-92
[8] = test system: SF-268
[9] = test system: UACC-257
[10] = test system: MDA-MB-231
[11] = test system: LOX IMVI
[12] = test system: NCI/ADR-RES
[13] = test system: SK-MEL-28
[14] = test system: MOLT-4
[15] = test system: MDA-N
[16] = test system: HL-60
[17] = test system: EKVX
[18] = test system: UO-31
[19] = test system: ACHN
[20] = test system: SNB-75
[21] = test system: NCI-H226
[22] = test system: M14
[23] = test system: MDA-MB-435
[24] = test system: DU-145
[25] = test system: 786-0
[26] = test system: HT-29
[27] = test system: NCI-H522
[28] = test system: SNB-19
[29] = test system: OVCAR-8
[30] = test system: CCRF-CEM
[31] = test system: T47D
[32] = test system: MCF7
[33] = test system: Hs-578T
[34] = test system: SW-620
[35] = test system: OVCAR-4
[36] = test system: HOP-62
[37] = test system: SR
[38] = test system: HCT-116
[39] = test system: SF-539
[40] = test system: RXF 393
[41] = test system: NCI-H460
[42] = test system: OVCAR-5
[43] = test system: HCT-15
[44] = test system: NCI-H23
[45] = test system: SK-MEL-5
[46] = test system: SN12C
[47] = test system: HCC 2998
[48] = test system: TK-10
[49] = test system: KM12
[50] = test system: K562
[51] = test system: CAKI-1
[52] = test system: Malme-3M
[53] = test system: SK-MEL-2
[54] = test system: PC-3
[55] = test system: SF-295

Compound: COC(=O)c1cccc(C)c1C1CN=NC12Cc1cc(C)cc(C)c1C2=O (stereo not drawn)
- GI50 [1]: 47.1 µM (inactive)
- GI50 [2]: 52.5 µM (inactive)
- GI50 [3]: 33.5 µM (inactive)
- GI50 [4]: 33.5 µM (inactive)
- GI50 [5]: 51.5 µM (inactive)
- GI50 [6]: 54.7 µM (inactive)
- GI50 [7]: 47.8 µM (inactive)
- GI50 [8]: 39.8 µM (inactive)
- GI50 [9]: > 100 µM (inactive)
- GI50 [10]: 30.1 µM (inactive)
- GI50 [11]: > 100 µM (inactive)
- GI50 [12]: 23.1 µM (inactive)
- GI50 [13]: 60.4 µM (inactive)
- GI50 [14]: 27 µM (inactive)
- GI50 [15]: 26.7 µM (inactive)
- GI50 [16]: 17.9 µM (inactive)
- GI50 [17]: 26.3 µM (inactive)
- GI50 [18]: 55.1 µM (inactive)
- GI50 [19]: 28.8 µM (inactive)
- GI50 [20]: 24.9 µM (inactive)
- GI50 [21]: 61.5 µM (inactive)
- GI50 [22]: 34.8 µM (inactive)
- GI50 [23]: 30.1 µM (inactive)
- GI50 [24]: 41.3 µM (inactive)
- GI50 [25]: 48.8 µM (inactive)
- GI50 [26]: 24.7 µM (inactive)
- GI50 [27]: 31.3 µM (inactive)
- GI50 [28]: 48.9 µM (inactive)
- GI50 [29]: 44.8 µM (inactive)
- GI50 [30]: 28.4 µM (inactive)
- GI50 [31]: 23.2 µM (inactive)
- GI50 [32]: 40.4 µM (inactive)
- GI50 [33]: 47 µM (inactive)
- GI50 [34]: 29.7 µM (inactive)
- GI50 [35]: 51.1 µM (inactive)
- GI50 [36]: 53 µM (inactive)
- GI50 [37]: 39 µM (inactive)
- GI50 [38]: 22.8 µM (inactive)
- GI50 [39]: 56.4 µM (inactive)
- GI50 [40]: 29.4 µM (inactive)
- GI50 [41]: 30.8 µM (inactive)
- GI50 [42]: > 100 µM (inactive)
- GI50 [43]: 51.1 µM
- GI50 [44]: 41.4 µM (inactive)
- GI50 [45]: 31.6 µM (inactive)
- GI50 [46]: 37.2 µM (inactive)
- GI50 [47]: 26.5 µM (inactive)
- GI50 [48]: > 100 µM (inactive)
- GI50 [49]: 34.4 µM (inactive)
- GI50 [50]: 26.4 µM (inactive)
- GI50 [51]: 78.2 µM (inactive)
- GI50 [52]: 32.2 µM (inactive)

Compound: O=C(NCCCn1ccnc1[N+](=O)[O-])C(=O)NCCCn1ccnc1[N+](=O)[O-]
- GI50 [1]: > 100 µM (inactive)
- GI50 [4]: > 100 µM (inactive)
- GI50 [6]: > 100 µM (inactive)
- GI50 [8]: > 100 µM (inactive)
- GI50 [9]: > 100 µM (inactive)
- GI50 [53]: 45.2 µM (inactive)
- GI50 [13]: > 100 µM (inactive)
- GI50 [14]: > 100 µM (inactive)
- GI50 [54]: > 100 µM (inactive)
- GI50 [16]: > 100 µM (inactive)
- GI50 [17]: > 100 µM (inactive)
- GI50 [19]: > 100 µM (inactive)
- GI50 [20]: > 100 µM (inactive)
- GI50 [21]: > 100 µM (inactive)
- GI50 [25]: > 100 µM (inactive)
- GI50 [26]: > 100 µM (inactive)
- GI50 [27]: > 100 µM (inactive)
- GI50 [55]: > 100 µM (inactive)
- GI50 [29]: 69.2 µM (inactive)
- GI50 [30]: > 100 µM (inactive)
- GI50 [32]: > 100 µM (inactive)
- GI50 [33]: > 100 µM (inactive)
- GI50 [36]: > 100 µM (inactive)
- GI50 [37]: > 100 µM (inactive)
- GI50 [38]: > 100 µM (inactive)
- GI50 [39]: > 100 µM (inactive)
- GI50 [41]: > 100 µM (inactive)
- GI50 [42]: > 100 µM (inactive)
- GI50 [43]: > 100 µM
- GI50 [44]: > 100 µM (inactive)
- GI50 [46]: 90.6 µM (inactive)
- GI50 [47]: > 100 µM (inactive)
- GI50 [48]: 31.3 µM (inactive)
- GI50 [49]: > 100 µM (inactive)
- GI50 [50]: > 100 µM (inactive)
- GI50 [52]: > 100 µM (inactive)
